In brackets after ≈: the same amount, converted by molar mass. Several values for one entry are separate records, joined by “and”; a condition that tells them apart may be missing. Equal entries are not always repeated.
Legend:
[1] = Compatibility of active ingredient with HPMC and gelatin capsule shells (assay, related substances); assay type: physicochemical; details: for Related substance RRT 0.92 / Related substance RRT 1.04 / Related substance RRT 1.35 / Related substance RRT 1.36 / Related substances total / Related substance RRT 0.98 / Related substance RRT 1.10: Hard Gelatin capsule shell
Method: Binary mixtures of the active ingredient with the capsules shells were made as follows: • An active ingredient doping solution (active ingredient dissolved in ethanol) was made ([…]). A 100 μL aliquot of this doping was used to ‘spike’ the 10 vials of each capsule shell type as described in Table 5. The nominal quantity of active ingredient per vial was therefore 50 μg. • No doping solution was added to the three control vials of the excipient. • The active vials were left open overnight to evaporate all the ethanol, before closing the vials. • Both the active and placebo control vials were placed on stability for up to 28 days at 25° C. and 50° C.

[2] = Forced degradation study of the active substance (HPLC assay, observations)
[3] = in vivo; cited from earlier work
[4] = Solubility of active ingredient in volatile solvents (visual); details: for solubility: thermodynamic from solid, Solubility of the active ingredient; for solubility / Solubility of the active ingredient: visual; for Solubility of the active ingredient: listed as active ingredient
Method: The active ingredient was dissolved in different solvents and the stability of the solution was assessed after being held overnight at ambient temperature. The following solvents were studied: ethanol, 50:50 EtOH:Water, 0.1 M HCl, pH 3 citric acid buffer, 5% SLS aq. and 5% Tween 80 aq.
This study involved assessing the solubility and the chemical stability of the active ingredient in different volatile solvents for use in wet granulation. The solubility was measured visually after mixing (by the disappearance of undissolved solids). Increasing quantities of each solvent were added as detailed above.

[5] = 50° C., 28 days, listed as active ingredient
[6] = initial, listed as active ingredient

For `CCS(=O)(=O)Nc1ccc2c(c1)nc(C(C)(C)C)n2CC1CCC(F)(F)CC1` [Compound I, N-(2-(tert-butyl)-1-((4,4-difluorocyclohexyl)methyl)-1H-benzimidazol-5-yl)ethanesulfonamide], the “Related substance RRT 0.92” value ([1]; 50° C., 28 days) was less than 0.05%, the “Related substance RRT 1.04” value ([1]; 50° C., 28 days) was less than 0.05% and the “Related substance RRT 1.35” value ([1]; 50° C., 28 days) was 0.06%. For the same compound, the “Related substance RRT 1.36” value ([1]; 50° C., 28 days) was 0.07%, the Related substances total ([1]; 50° C., 28 days) was 0.33% and the “Related substance RRT 0.98” value [1, 5] was 0.11% and 0.09%. The “Related substance RRT 1.10” value [1, 5] was 0.09% and 0.11%, the “Related substance RRT 1.04” value ([1]; initial) was 0.05% and the “Related substance RRT 1.10” value ([1]; initial) was 0.10%. The “Related substance RRT 1.36” value ([1]; initial) was 0.08%, the “Related substance RRT 0.92” value [1, 6] was 0.06% and 0.05% and the “Related substance RRT 0.98” value [1, 6] was 0.26% and 0.24%. The “Related substance RRT 1.35” value [1, 6] was 0.08% and 0.07%, the Related substances total [1, 6] was 0.62% and 0.58% and the Total impurities ([1]; both capsule types, all incubation times and temperatures) was “below 1%”. The Sample observations ([2]; Test 1 Control (solution, ambient temperature)) was “Clear colourless solution. No change over study period”, the “Assay of active substance” value ([2]; Test 1 solution control, 0 days) was 99.40 area % and the “Assay of active substance” value ([2]; Test 1 solution control, 3 days) was 99.42 area %. For the same compound, the “Assay of active substance” value ([2]; Test 1 solution control, 7 days) was 99.30 area %, the “Assay of active substance” value ([2]; Test 1 solution control, 11 days) was 99.39 area % and the Sample observations ([2]; Test 2 Solid state 100° C.) was “Off-white solid turning to very faint orange solid over study”. The “Assay of active substance” value ([2]; Test 2 solid state at 100° C., 3 days) was 99.43 area %, the “Assay of active substance” value ([2]; Test 2 solid state at 100° C., 7 days) was 99.40 area % and the Sample observations ([2]; Test 3 Acid 60° C.) was “Clear colourless solution. No change over study period”. For the same compound, the Sample observations ([2]; Test 3 Acid (1M, ambient temperature)) was “Clear colourless solution. No change over study period”, the “Assay of active substance” value ([2]; Test 3 acid (1M) ambient temperature, 3 days) was 99.40 area % and the “Assay of active substance” value ([2]; Test 3 acid (1M) ambient temperature, 7 days) was 99.41 area %. For the same compound, the “Assay of active substance” value ([2]; Test 3 acid (1M) at 60° C. until day 7, 80° C. until day 11, 11 days) was 98.87 area %, the “Assay of active substance” value ([2]; Test 3 acid (1M) at 60° C., 3 days) was 99.37 area % and the “Assay of active substance” value ([2]; Test 3 acid (1M) at 60° C., 7 days) was 99.35 area %. For the same compound, the Sample observations ([2]; Test 4 Base 40° C.) was “Clear colourless solution. No change over study period”, the Sample observations ([2]; Test 4 Base (0.5M, ambient temperature)) was “Clear colourless solution. No change over study period” and the “Assay of active substance” value ([2]; Test 4 base (0.5M) ambient temperature, 3 days) was 99.40 area %. For the same compound, the “Assay of active substance” value ([2]; Test 4 base (0.5M) ambient temperature, 7 days) was 99.37 area %, the “Assay of active substance” value ([2]; Test 4 base (0.5M) at 60° C. until day 7, 80° C. until day 11, 11 days) was 99.16 area % and the “Assay of active substance” value ([2]; Test 4 base (0.5M) at 60° C., 3 days) was 99.34 area %. For the same compound, the “Assay of active substance” value ([2]; Test 4 base (0.5M) at 60° C., 7 days) was 99.32 area %, the Sample observations ([2]; Test 5 Heat 60° C. (solution)) was “Clear colourless solution. No change over study period” and the “Assay of active substance” value ([2]; Test 5 solution at 60° C. until day 7, 80° C. until day 11, 11 days) was 98.00 area %. The “Assay of active substance” value ([2]; Test 5 solution at 60° C., 3 days) was 99.13 area %, the “Assay of active substance” value ([2]; Test 5 solution at 60° C., 7 days) was 99.34 area % and the Sample observations ([2]; Test 6 Peroxide (1.5%)) was “Clear colourless solution. No change over study period”. The “Assay of active substance” value ([2]; Test 6 peroxide (1.5%), 3 days) was 98.50 area %, the “Assay of active substance” value ([2]; Test 6 peroxide (1.5%), 7 days) was 97.75 area % and the “Assay of active substance” value ([2]; Test 6 peroxide (1.5%), 13 days) was 96.58 area %. The Sample observations ([2]; Test 7 Photostability (Solution Control)) was “Clear colourless solution. No change over study period”, the “Assay of active substance” value ([2]; Test 7 photocontrol solution) was 99.40 area % and the Sample observations ([2]; Test 8 Photostability (Solution Treated)) was “Clear colourless solution turning to a clear yellow solution”. The “Assay of active substance” value ([2]; Test 8 photo treated solution, 1.92 million lux hours, near-UV 374.6 Whm^−2) was 74.53 area %, the Sample observations ([2]; Test 9 Photostability (Solid Control)) was “Off white solid. No change over study period” and the “Assay of active substance” value ([2]; Test 9 photocontrol solid) was 99.40 area %. The Sample observations ([2]; Test 10 Photostability (Solid Treated)) was “Off-white solid turning to very faint orange solid over study”, the “Assay of active substance” value ([2]; Test 10 phototreated solid, 1.92 million lux hours, near-UV 374.6 Whm^−2) was 99.31 area % and the “Forced degradation outcome (summary)” value ([2]; peroxide, 1M acid, 0.5M base and solution when extended to 80° C.) was “slight degradation”. For the same compound, the “Forced degradation outcome (summary)” value ([2]; solution at room temperature, solid at 100° C., 1M acid and 0.5M base at room temperature and 60° C., solution at 60° C., photostability as a solid) was “stable to degradation”, the “Forced degradation outcome (summary)” value ([2]; solution under photostability conditions) was “Major degradation” and the CNS-psychoactive effects [3] was “does not cause CNS-psychoactive effects”. The Effect on appetite [3] was “stimulate appetite in a dose-dependent manner”, the solubility ([4]; 0.1 M HCl, simulated gastric fluid) was 7000 µg/mL (≈ 16.9 mM) and the “Solubility of the active ingredient” value ([4]; 0.1 M HCl) was greater than 7000 µg/mL. The Time to dissolve ([4]; 5% SLS aq., 0.6 mg/mL) was 70 min, the “Time to dissolve (DND = did not dissolve)” value ([4]; 5% SLS aq., 3 mg/mL) was “DND” and the “Time to dissolve (DND = did not dissolve)” value ([4]; 5% SLS aq., 7 mg/mL) was “DND”. The solubility ([4]; 5% Tween 80 aq., aqueous with cosolvent or surfactant or cyclodextrin, 5% Tween 80) was less than 600 µg/mL, the “Time to dissolve (DND = did not dissolve)” value ([4]; 5% Tween 80 aq., 0.6 mg/mL) was “DND” and the “Time to dissolve (DND = did not dissolve)” value ([4]; 5% Tween 80 aq., 3 mg/mL) was “DND”. The “Time to dissolve (DND = did not dissolve)” value ([4]; 5% Tween 80 aq., 7 mg/mL) was “DND”, the solubility ([4]; 50:50 EtOH:water, aqueous with cosolvent or surfactant or cyclodextrin, 50:50 EtOH:water) was less than 600 µg/mL and the “Time to dissolve (DND = did not dissolve)” value ([4]; 50:50 EtOH:water, 0.6 mg/mL) was “DND”. The “Time to dissolve (DND = did not dissolve)” value ([4]; 50:50 EtOH:water, 3 mg/mL) was “DND”, the “Time to dissolve (DND = did not dissolve)” value ([4]; 50:50 EtOH:water, 7 mg/mL) was “DND” and the solubility ([4]; aqueous 5% SLS, aqueous with cosolvent or surfactant or cyclodextrin) was greater than 600 µg/mL. The solubility ([4]; ethanol, organic solvent or mixture) was 7000 µg/mL (≈ 16.9 mM), the “Solubility of the active ingredient” value ([4]; ethanol) was greater than 7000 µg/mL and the solubility ([4]; pH 3 citric acid buffer, pH 3, aqueous buffer, pH 3 citric buffer) was greater than 600 µg/mL. For the same compound, the Time to dissolve ([4]; pH 3 citric acid buffer, 0.6 mg/mL) was 180 min, the “Time to dissolve (DND = did not dissolve)” value ([4]; pH 3 citric acid buffer, 3 mg/mL) was “DND” and the “Time to dissolve (DND = did not dissolve)” value ([4]; pH 3 citric acid buffer, 7 mg/mL) was “DND”.

From US20260207560A1, “PLURALITY OF GRANULES” (priority 2022, published 2026)
